Laboratory results: PMC11167521, “Inhibition of neuraminidase-1 sialidase activity by interfering peptides impairs insulin receptor activity in vitro and glucose homeostasis in vivo” (The Journal of Biological Chemistry, 2024)
One block for each substance: values may come before it. No end group written: not given here.

How the values were obtained:
[1] = test system: COS-7 cells overexpressing IR (COS-7^IR); assay: MTT cell viability assay, COS-7 cells overexpressing IR; format: cell-based, African green monkey; settings: peptide 0.1 μM in LDS micelles, 3 h and 24 h, compared to control without treatment, n = 3-4
Method: (§1) The concentration of 0.1 μM and two incubation times, 3 h (Fig. S1, A and C) and 24 h (Fig. S1, B and D) have been tested. […] The choice of this concentration was based on the previous study by Albrecht et al. ([31]).
(§2) HepG2 cell line and COS-7^IR cells were, respectively, harvested in 96-well plates at a cell density of 80,000 cells/well and 10,000 cells/well. After 24 h, cells were incubated with IntPep-RKR or mutIntPep-RKR at 0.1 μM or only with LDS micelles during 3 h or 24 h. Then, the medium has been removed and cells were incubated in the dark during 4 h at 37 °C with a 3-(4-5-dimethylthiazol-2-yl) -2,5-diphenyltetrazolium bromide solution (MTT, Sigma, 5 mg/ml) diluted in PBS (one-sixth v/v). The medium was removed, and 100 μl of dimethyl sulfoxide were added in each well. Cell viability was measured at 570 nm with Infinite F200 Pro (TECAN) hardware using Magellan software (https://lifesciences.tecan.com/software-magellan?p=tab--2).
(§3) HepG2 cells (A,B) and COS-7 cells
(§4) overexpressing IR (C,D) were incubated with mutIntPep-RKR, IntPep-RKR (0.1 µm) or LDS
(§5) micelles for 3h (A,C) or for 24h (B,D).
(§6) ZS equipment (Malvern Panalytical, UK). Water was used as a reference dispersing medium.
(§7) Micelles sizes were expressed in volume (as the diameter of a theorical sphere in nanometer),

membrane NEU-1 [2] = biological target: T1, membrane NEU-1 (Homo sapiens, UniProt Q99519); assay: Membrane NEU-1 sialidase activity, COS-7^IR/NEU-1 crude membranes (Muf-NANA); format: biochemical; parameters: host or cells: COS-7 (ATCC CRL-1651) or COS-7^IR, transient transfection, 72 h; settings: COS-7^IR/NEU-1 crude membrane, 0.1 μM, 15 min, compared to mutIntPep-RKR, n = 4-5, mean ± SEM
Text: (§8) Plasmid encoding human IR was a gift from Dr Tarik Issad (Institut Cochin, Paris, France) and plasmid encoding human PPCA protein was provided by Pr. Alessandra d’Azzo (St Jude Children's Research Hospital, Memphis, USA). These two plasmids have been previously described ([50], [51]). Plasmid encoding human NEU-1 was purchased from ImaGenes GmbH. For cell transfections, JetPEI DNA transfection reagent was purchased from Polyplus transfection. […] HepG2 cells were harvested in 1 g/L glucose Dulbecco’s modified Eagle’s medium supplemented with 10% heat inactivated fetal bovine serum, 100 units/ml penicillin, 0,1 mg/ml streptomycin at 37 °C in a humidified atmosphere at 5% CO2. COS-7 cells were maintained in culture in 4.5 g/L glucose Dulbecco’s modified Eagle’s medium supplemented with 10% heat-inactivated fetal bovine serum, 100 units/ml penicillin, 0.1 mg/ml streptomycin at 37 °C in a humidified atmosphere at 5% CO2. COS-7 cells have been stably transfected with plasmid encoding human IR. Geneticin selection (400 μg/ml) has been made after transfection to obtain a stable cell line overexpressing IR named COS-7^IR. Geneticin (80 μg/ml) were added in the completed medium to maintain this cell line. […]

membrane NEU-1 [3] = biological target: T1, membrane NEU-1; assay: Membrane NEU-1 sialidase activity, COS-7^NEU-1 crude membranes (Muf-NANA); format: biochemical; parameters: host or cells: COS-7 (ATCC CRL-1651) or COS-7^IR, transient transfection, 72 h; settings: COS-7^NEU-1 crude membrane, 0.1 μM, 15 min, compared to mutIntPep-RKR, n = 4-5, mean ± SEM
Text: as §8

HepG2 cells = assay: MTT cell viability assay, HepG2 cells; format: cell-based, human; settings: peptide 0.1 μM in LDS micelles, 3 h and 24 h, compared to control without treatment, n = 3-4
Method: as §1, §2, §3, §4, §5, §6, §7

membrane NEU-1 [4] = biological target: T1, membrane NEU-1; assay: Membrane NEU-1 sialidase activity, HepG2 crude membranes (Muf-NANA); format: biochemical; settings: 0.1 μM, 15 min incubation, compared to mutIntPep-RKR at same concentration, n = 4-5, mean ± SEM
Method: HepG2 cells grown in 75 cm^2 flasks and COS-7 cell lines grown in 10 cm Petri dishes were washed twice with cold PBS and resuspended with 1 ml cold TEM buffer extemporaneously completed with 1% (v/v) protease inhibitor cocktail, 10 mM NaF, 2 mM Na3VO4. After sonication, samples were centrifuged at 600g for 10 min at 4 °C to remove nonlysed cells and nuclei. Supernatants were extracted and centrifuged at 20,000g for 45 min at 4 °C. Crude membrane-containing pellets were then resuspended in 400 μl Mes buffer (2-(N-morpholino) ethanesulfonic acid hydrate, 20 mM, pH 4.5). Protein concentration was then determined by bicinchoninic acid assay to measure sialidase activity from 50 μg of crude membrane proteins. Samples were incubated with peptides for 15 min on ice. Muf-NANA (2′-(4-MethylUmbelliFeryl)-alpha-D-N-AcetylNeuraminic Acid) (Biosynth) at a concentration of 400 μM was then added and incubated with samples for 2 h at 37 °C in the dark. The reaction was then stopped by adding Na2CO3 (Merck). A total of 150 μl of each sample were finally transferred in black 96 well plates. Emitted fluorescence was measured with Infinite F200 Pro (TECAN) hardware and Magellan software (excitation: 360 nm/emission: 465 nm) (https://lifesciences.tecan.com/software-magellan?p=tab--2).

membrane NEU-1 dimers = biological target: T2, membrane NEU-1 dimers (Homo sapiens, UniProt Q99519); assay: NEU-1 dimerization in HepG2 cell membrane extracts (Western blot); format: biochemical; settings: 0.1 μM, n = 4, mean ± SEM
T2 construct: HepG2 endogenously expresses IR and NEU-1; endogenous in cells; host or cells: HepG2 (ATCC HB-8065)
Method: HepG2 cells grown in 75 cm^2 flasks at 80% of confluence were washed twice with cold PBS and resuspended with 1 ml cold TEM buffer (75 mM Tris, 2 mM EDTA, 12 mM MgCl2, at pH 7,5) extemporaneously completed with 1% (v/v) protease inhibitor cocktail, 10 mM NaF, and 2 mM Na3VO4. After sonication, samples were centrifuged at 600g for 10 min at 4 °C to remove unlysed cells and nuclei. Supernatants were collected and centrifuged at 20,000g for 45 min at 4 °C. Crude membrane-containing pellets were then resuspended in TEM buffer supplemented with 1% (w/v) CHAPS {3-[(3-cholamidopropyl) dimethylammonio]-1-propanesulfonate} (Sigma-Aldrich). Cell membranes were then incubated with peptides at 0.1 μM and solubilized for 3 h at 4 °C under gentle end-over-end mixing. Supernatants were recovered after a centrifugation step (20,000g, 45 min, and 4 °C). These samples were then used for Western blot analyzes.
Protein samples were diluted in Laemmli buffer (500 mM Tris, 10% (w/v) SDS, 20% saccharose (w/v), 0.5% (w/v) bromophenol blue, 10% (v/v) β-mercaptoethanol, pH 6.8) and heated for 5 min at 100 °C. […]
Chemiluminescent protein detection was done by using ECL Prime Kit (GE Healthcare, Orsay, France). […] Quantification of bands intensity has been made using Image Studio Lite software (https://www.licor.com/bio/image-studio/).

[5] = biological target: T3, membrane NEU-1 in HepG2 cells (Homo sapiens, UniProt Q99519); assay: Colocalization of fluorescent peptide with NEU-1 by confocal microscopy; format: cell-based; settings: fixed HepG2 cells, 0.1 μM in LDS micelles, 1 h, n = 3
T3 construct: HepG2 endogenously expresses IR and NEU-1; endogenous in cells; host or cells: HepG2 (ATCC HB-8065)
Method: IntPeps coupled with FITC and solubilized in LDS micelles have been incubated at 0.1 μM for 1 h with fixed HepG2 cells.
HepG2 cells were seeded onto coverslips in 24-well plates at 50,000 cells/well. After 24 h, cells were fixed with paraformaldehyde 1% (Euromedex) for 5 min followed by a second incubation with paraformaldehyde 2% for 10 min at room temperature (RT). Cells were washed twice for 5 min with PBS and permeabilized with Triton 0.2% during 5 min at RT. A total of 3% bovine serum albumin (BSA) was disposed in each well for 1 h at RT after three washes with PBS for 5 min. Cells were then incubated with NEU-1 mouse monoclonal antibody (1/200 in PBS with 3% BSA) (Santa Cruz Biotechnology) for 2 h at RT. Then, this solution was removed, and the cells were incubated with anti-mouse secondary antibody coupled with Alexa Fluor 568 (1/1000 in PBS with 3% BSA) (Invitrogen) for 2 h at RT in the dark. After washes, cells were incubated with IntPeps coupled with FITC (0.1 μM) or with FITC alone (0.1 μM) at RT in the dark. Coverslips were then mounted in a medium containing 4′,6-diamidino-2-phenylindole (Prolong gold, antifade, Invitrogen). Slides were finally observed using confocal microscopy (Zeiss LSM 710) and featured slices were analyzed with Image J software (https://imagej.net/ij/download.html).

C57Bl/6J mice [6] = assay: Weight and food intake during 8 weeks of treatment in mice; format: in vivo, mouse; settings: compared to LDS micelles
Method: (§9) Experiments procedures were evaluated by research ethics committee of the University of Reims Champagne-Ardenne and approved by the French Ministry of Higher Education, Research and Innovation (APAFis #33891-2021111016547019). Five C57Bl/6J male and five female mice (Janvier Labs), aged 6 weeks, were maintained in a 12/12-h light/dark cycle and in a temperature and humidity-controlled environment. All mice had ad libitum access to a diet without chlorophyll (#U8959, SAFE diet) and water during the experimental period. Mice weight was measured twice per week throughout treatment. Weight gain or loss was then calculated and normalized to the weight measurement of the first week. The food intake was evaluated with weight feeders during the last week of treatment and every day. This weight was then divided by the number of mice in each cage.
(§10) Treatments have been started when mice were aged 8 weeks. Mice were under diet without chlorophyll (#U8959, SAFE diet) 2 weeks before the beginning of treatments to minimize the background noise of fluorescence measurements. LDS micelles or Cy5-IntPep-RKR were prepared as described previously and injected intraperitoneally at 100 μg/kg twice per week (100 μl).

C57Bl/6J mice [7] = assay: Systemic and cellular toxicity, plasma AST, CRP and LDH in mice; format: in vivo, mouse
Method: as §9, §10
Blood samples were collected before and after 8-weeks treatment, respectively, with LDS micelles or Cy5-IntPep-RKR by retroorbital and intracardiac pathway with sterile heparin Pasteur pipets and sterile needle in lithium heparin MiniCollect tubes (Greiner Bio-One). Animals were under isoflurane anesthesia during blood recovery. After centrifugation (3000 rpm, 10 min), plasma samples were then recovered in 1.5 ml eppendorfs and conserved at −20 °C. Finally, these samples were sent to the Institut Clinique de la Souris (Illkirch, France) to quantify several parameters as AST, CRP, and LDH. Graphics represent the percentages of observed variation between values obtained before and after 8-weeks treatment with LDS micelles or Cy5-IntPep-RKR.

C57Bl/6J mice [8] = assay: Biodistribution of fluorescent peptide in mice (fluorescence molecular tomography); format: in vivo, mouse; settings: 100 μg/kg i.p. twice per week
Method: as §9, §10
Fluorescence measurements in entire body were realized in 13 mm cassette under isoflurane anesthesia (with PerkinElmer fluorescence molecular tomography 4000) at first, second, fifth, seventh, and eighth weeks of the treatment and 15 min after injection of fluorescent peptides. Organs were collected at the end of the treatment and placed on another cassette to measure their fluorescence with the same device. To remove the potential autofluorescence of certain organs, organ fluorescence of mice receiving LDS micelle injection (twice per week at 100 μg/kg) was measured and subtracted to those of mice receiving Cy5-IntPep-RKR. The measurement of organ fluorescence has been converted in ng of peptides per gram of organ and represented in % of peptides per organ. The software TrueQuant has been used for analyzes (https://www.perkinelmer.com.cn/lab-products-and-services/resources/in-vivo-imaging-software-downloads.html?_ga=2.29909951.1041849854.1637318373-1604795059.1637318373). The geometric size of the region of interest (ROI) background was between 40 and 41.5 mm^3, and one of the ROI was between 7900 and 8100 mm^3 in the entire body. The geometric size of the ROI background was the same in organ per organ biodistribution and one of the ROI for each organ approximatively as followed: the adipose tissue (1825 mm^3), the spleen (1095 mm^3), the stomach (2555 mm^3), the bladder (594 mm^3), the muscle (1142 mm^3), the liver (3379 mm^3), and the kidneys (1946 mm^3).

C57Bl/6J mice [9] = assay: Glycemia measurement in mice; format: in vivo, mouse
Method: as §10
A slight incision at tail was made to collect a drop of blood (<10 μl). The nonfasted blood glucose was then measured under anesthesia for all groups with Contour Plus device and reactive strips before injection and 30 min after injection of LDS micelles or Cy5-IntPep-RKR at 100 μg/kg. Data were then normalized for each group by comparison with glycemia value before injection.

[10] = 100 μg/kg i.p. twice per week for 8 weeks, versus LDS micelles group
[11] = after 8 weeks, organ fluorescence, n = 10, mean ± SEM

- decrease of membrane NEU-1 sialidase activity (membrane NEU-1 [2]): 18.1% ± 2.9%
- decrease of membrane NEU-1 sialidase activity (membrane NEU-1 [3]): 35.3% ± 7.6%
- decrease of membrane NEU-1 sialidase activity (membrane NEU-1 [4]): 32.6% ± 5.7%
- decrease of the formation of NEU-1 dimers (membrane NEU-1 dimers; HepG2 cell membrane extracts, 3 h at 4 °C, compared to mutIntPep-RKR): 30.7% ± 5.6%
- decrease of the ratio NEU-1 dimers/NEU-1 monomers (membrane NEU-1 dimers; HepG2 cell membranes, normalized to mutIntPep-RKR condition): 42.4% ± 7.3%
Substance: ELVDPVVAAGAVVTSSGIVFFSRKR [IntPep-RKR]
- cell toxicity (cell viability, MTT) [1]: do not induce cell toxicity
- cell toxicity (cell viability, MTT) (HepG2 cells): do not induce cell toxicity

Substance: ELVDPVVVAIAVVTSSIIAFFSRKR [mutIntPep-RKR]
- cell toxicity (cell viability, MTT) [1]: do not induce cell toxicity
- cell toxicity (cell viability, MTT) (HepG2 cells): do not induce cell toxicity

Substance: FITC-LC- E312LVDPVVAAGAVVTSSGIVFFS333-RKR [FITC-IntPep-RKR, IntPeps coupled with FITC and solubilized in LDS micelles]
- colocalization with NEU-1 [5]: colocalization areas at the plasma membrane

Substance: H-C(Cy5)-E312LVDPVVAAGAVVTSSGIVFFSRKR333-NH2 [Cy5-IntPep-RKR, IntPeps coupled with cyanine-5, injected in LDS micelles]
- weight (C57Bl/6J mice [6]; 100 μg/kg i.p. twice per week, 8 weeks, n = 10 per group): do not induce modification of weight
- food intake (C57Bl/6J mice [6]; last week of 8-week treatment, n = 6): do not impair the food intake
- plasma aspartate transaminase (AST) activity (C57Bl/6J mice [7]; [10]): No significant difference
- plasma expression level of C-reactive protein (CRP) (C57Bl/6J mice [7]; [10]): No significant difference
- plasma lactate dehydrogenase (LDH) activity (C57Bl/6J mice [7]; [10]): No significant difference
- decrease of CRP level (C57Bl/6J mice [7]; 100 μg/kg i.p. twice per week, comparing data before and after 8-week treatment, mean ± SEM): 21.11% ± 3.1%
- toxicity and inflammation (C57Bl/6J mice [7]; 8-week treatment, two injections per week at 100 μg/kg): did not induce toxicity and inflammation
- whole body fluorescence distribution (C57Bl/6J mice [8]; 15 min after injection, weeks 1,2,5,7 and 8): well distributed in the whole organism
- % of peptides per organ, white adipose tissue (C57Bl/6J mice [8]; after 8 weeks, organ fluorescence minus autofluorescence, n = 10, mean ± SEM): 29.2% ± 9%
- % of peptides per organ, bladder (C57Bl/6J mice [8]; [11]): 18.52% ± 5.7%
- % of peptides per organ, kidneys (C57Bl/6J mice [8]; [11]): 5.33% ± 2.1%
- % of peptides per organ, liver (C57Bl/6J mice [8]; [11]): 6.13% ± 2.5%
- % of peptides per organ, muscle (C57Bl/6J mice [8]; [11]): 17 ± 4.25%
- % of peptides per organ, spleen (C57Bl/6J mice [8]; [11]): 17.05% ± 3.7%
- increase of blood glucose after peptide injection (C57Bl/6J mice [9]; C57Bl/6J mice without fasting, isoflurane anesthesia, 30 min after i.p. injection at 100 μg/kg, compared to before injection, n = 10, mean ± SEM): about 44.5% ± 10.4%
- blood glucose level, mice fasted for 4 h or fed (C57Bl/6J mice [9]; C57Bl/6J mice, 8 weeks of treatment at 100 μg/kg twice per week, versus LDS micelles group, n = 10 per group): no difference of blood glucose level
